Data on 10 molecules can be found in ChEMBL document CHEMBL1155570, “5'-Methoxyhydnocarpin-D and pheophorbide A: Berberis species components that potentiate berberine growth inhibition of resistant Staphylococcus aureus” (J Nat Prod, 2000).

Activity calls are given as the source filed them. The rule behind the calls is not given here.

The first experiment deals with Staphylococcus aureus. The experiment can be described thus: Antimicrobial activity against Staphylococcus aureus 4222 with norA KLE mutation at 120 to 140 ug/ml. It is filed as functional, organism-based.
For `COc1ccc2cc3[n+](cc2c1OC)CCc1cc2c(cc1-3)OCO2`, the outcome was Active.

The next experiment deals with Staphylococcus aureus. The experiment can be described thus: Antimicrobial activity against Staphylococcus aureus 4222 with norA KLE 820(3) mutation. The class given is functional, organism-based.
Turning to `COc1ccc2c(c1OC)-c1c(OC)c(OC)cc3c1[C@H](C2)[N+](C)(C)CC3`, the outcome was inactive. Consider `COc1cc2c(cc1O)[C@@H]1Cc3cc(O)c(OC)cc3C(C2)N1C`, for which the outcome was inactive.

For `CN1CCc2cc3c(cc2C(=O)Cc2cc4c(cc2C1)OCO4)OCO3`, the outcome was inactive.

In the case of `COc1ccc2c(c1O)-c1c(OC)c(OC)cc3c1[C@H](C2)N(C)CC3`, the outcome was inactive. On to `COc1cc2c(cc1OC)-c1c(OC)c(OC)cc3c1[C@H](C2)N(C)CC3`, for which the outcome was inactive. Take `COc1cc2c(cc1OC)[C@@H]1Cc3ccc(OC)c(OC)c3CN1CC2`: the result was inactive. Take `COc1cc2c(cc1OC)C1Cc3cc(OC)c(OC)cc3[C@H](C2)N1C`: the outcome was inactive.

For the molecule `COc1ccc2c(c1OC)CN(C)CCc1cc3c(cc1C(=O)C2)OCO3`, the outcome was inactive. As to `COc1ccc(CC2c3cc(OC)c(OC)cc3CCN2C)cc1OC` (stereo not given), the result was inactive.
